Measured values taken from ChEMBL document CHEMBL6087465, “Design, Synthesis, and Antitumor Activity Evaluation of 2-Phenylthiazole-5-Carboxylic Acid Derivatives Targeting Transactivation Response RNA-Binding Protein 2” (J Med Chem, 2025).
Calls of active or inactive are those of the source. The calls are words filed in the database; no cut-off is given here.

Assays:
Format in all cases: functional, cell-based
SK-HEP1 [1] = experiment: Antiproliferative activity against human SK-HEP1 cells cultured as 2D cells assessed as inhibition of cell growth at 10 uM incubated for 72 hrs by CCK-8 assay
HCCLM3 [2] = experiment: Antiproliferative activity against human HCCLM3 cells cultured as 2D cells assessed as inhibition of cell growth at 10 uM incubated for 72 hrs by CCK-8 assay
SK-HEP1 [3] = experiment: Antiproliferative activity against human SK-HEP1 cells cultured as 2D cells assessed as inhibition of cell growth at 10 to 50 uM incubated for 72 hrs by CCK-8 assay; conditions: dose 10-50 µM
HCCLM3 [4] = experiment: Inhibition of cell migration in human HCCLM3 cells at 10 to 50 uM incubated for 24 hrs by transwell assay; conditions: dose 10-50 µM
HCCLM3 [5] = experiment: Antiproliferative activity against human HCCLM3 cells cultured as 2D cells assessed as inhibition of cell growth at 10 to 50 uM incubated for 72 hrs by CCK-8 assay; conditions: dose 10-50 µM
SK-HEP1 [6] = experiment: Inhibition of cell migration in human SK-HEP1 cells at 10 to 50 uM incubated for 24 hrs by transwell assay; conditions: dose 10-50 µM

Row | Compound | Activity (SK-HEP1 [1]) | Activity (HCCLM3 [2]) | Activity (SK-HEP1 [3]) | inhibition (HCCLM3 [4]) | Activity (HCCLM3 [5]) | inhibition (SK-HEP1 [6])
1 | Cc1nc(-c2ccc(OCC3CC3)c(F)c2)sc1C(=O)O | inactive | inactive |  |  |  | 
2 | CCCCOc1ccc(-c2nc(C)c(C(=O)O)s2)cc1 | inactive | inactive |  |  |  | 
3 | Cc1nc(-c2ccc(OCC(C)C)c(C#N)c2)sc1C(=O)O |  |  | Active | Active | Active | Active
4 | Cc1nc(-c2ccc(OCC(C)(C)C)cc2)sc1C(=O)O | inactive | inactive |  |  |  | 
